Read-outs that look alike come from different tables or passages of the source.
Key:
HIV-1 (RF) in MT-2 cells = experiment: microbe, parasite or virus in culture; type: cell-based
Outline: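 Read-out: gag and pol viral RNA captured by 5′-biotinylated oligonucleotides on streptavidin-coated wells, detected with alkaline phosphatase-linked reporter oligonucleotides, calibrated against BH10 in vitro transcripts. Virus stocks (RF, MN, IIIB) come from H9 cultures; MT-2 host cells kept in RPMI 1640, 5% FCS.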

[1] = target: single-chain tethered dimer of HIV protease (Human immunodeficiency virus 1, UniProt P04585); experiment: biochemical; type: biochemical; design: fused on or other part: A second copy of the same protease unit is joined to the first by a short peptide tether, giving one polypeptide

Structure (SMILES) | IC90 (HIV-1 (RF) in MT-2 cells; Table 2m) | Ki ([1]; Table 2m, read-out: HPLC Ki) | IC90 (HIV-1 (RF) in MT-2 cells; Table 2r) | Ki ([1]; Table 2r, read-out: Ki HPLC) | other results
O=S1(=O)N(Cc2ccc(O)cc2)C(Cc2ccccc2)C(O)C(O)C(Cc2ccccc2)N1Cc1ccc(O)cc1 (centres unmarked) [23K] | +++ (+++=<10 μg/mL) | < 10 nM |  |  | 
Nc1cccc(CN2C(Cc3ccccc3)C(O)C(O)C(Cc3ccccc3)N(Cc3cccc(N)c3)S2(=O)=O)c1 (centres unmarked) [23M] | +++ (+++=<10 μg/mL) | < 10 nM |  |  | 
O=S1(=O)N(Cc2cccc(CO)c2)C(Cc2ccccc2)C(O)C(O)C(Cc2ccccc2)N1Cc1cccc(CO)c1 (centres unmarked) [23N] | +++ (+++=<10 μg/mL) | < 10 nM |  |  | 
COCc1cccc(CN2C(Cc3ccccc3)C(O)C(O)C(Cc3ccccc3)N(Cc3cccc(COC)c3)S2(=O)=O)c1 (centres unmarked) [23P] | ++ (++=10 to 100 μg/mL) | 10 to 1000 nM |  |  | 
O=Cc1cccc(CN2C(Cc3ccccc3)C(O)C(O)C(Cc3ccccc3)N(Cc3cccc(C=O)c3)S2(=O)=O)c1 (centres unmarked) [23Q] | +++ (+++=<10 μg/mL) | < 10 nM |  |  | 
O=S1(=O)N(CC2CCOC2)C(Cc2ccccc2)C(O)C(O)C(Cc2ccccc2)N1CC1CCOC1 (centres unmarked) [23R] | +++ (+++=<10 μg/mL) | 10 to 1000 nM |  |  | 
O=S1(=O)N(Cc2cccc(C=NO)c2)C(Cc2ccccc2)C(O)C(O)C(Cc2ccccc2)N1Cc1cccc(C=NO)c1 (centres unmarked) [23S] | +++ (+++=<10 μg/mL) | < 10 nM |  |  | 
CC(=O)c1cccc(CN2C(Cc3ccccc3)C(O)C(O)C(Cc3ccccc3)N(Cc3cccc(C(C)=O)c3)S2(=O)=O)c1 (centres unmarked) [23T] | +++ (+++=<10 μg/mL) | < 10 nM |  |  | 
CC(=NO)c1cccc(CN2C(Cc3ccccc3)C(O)C(O)C(Cc3ccccc3)N(Cc3cccc(C(C)=NO)c3)S2(=O)=O)c1 (centres unmarked) [23U] | +++ (+++=<10 μg/mL) | < 10 nM |  |  | 
CN1C(Cc2ccccc2)C(O)C(O)C(Cc2ccccc2)N(C)S1(=O)=O (centres unmarked) [23V] | ++/+ (The ++/+ is used in the cases where an IC90 was determined to be >50 μg/mL) | > 1000 nM |  |  | 
CCN1C(Cc2ccccc2)C(O)C(O)C(Cc2ccccc2)N(CC)S1(=O)=O (centres unmarked) [23W] | ++ (++=10 to 100 μg/mL) | 10 to 1000 nM |  |  | 
CCCN1C(Cc2ccccc2)C(O)C(O)C(Cc2ccccc2)N(CCC)S1(=O)=O (centres unmarked) [23X] | +++ (+++=<10 μg/mL) | < 10 nM |  |  | 
N#Cc1cccc(CN2C(Cc3ccccc3)C(O)C(O)C(Cc3ccccc3)N(Cc3cccc(C#N)c3)S2(=O)=O)c1 (centres unmarked) [23Y] | +++ (+++=<10 μg/mL) | 10 to 1000 nM |  |  | 
O=P1(Oc2ccccc2)N[C@H](Cc2ccccc2)[C@H](O)[C@@H](O)[C@@H](Cc2ccccc2)N1 (some centres unmarked) [28A] |  |  | ++ (++=10 to 100 μg/mL) | > 1000 nM | 
O=P1(Oc2ccccc2)N(CC2CC2)[C@H](Cc2ccccc2)[C@H](O)[C@@H](O)[C@@H](Cc2ccccc2)N1CC1CC1 (some centres unmarked) [28C] |  |  | +++ (+++=<10 μg/mL) | 10 to 1000 nM | 
O=P1(Oc2ccccc2)N(Cc2ccc(CO)cc2)[C@H](Cc2ccccc2)[C@H](O)[C@@H](O)[C@@H](Cc2ccccc2)N1Cc1ccc(CO)cc1 (some centres unmarked) [28E] |  |  | +++ (+++=<10 μg/mL) | 10 to 1000 nM | 
CCOP1(=O)N[C@H](Cc2ccccc2)[C@H](O)[C@@H](O)[C@@H](Cc2ccccc2)N1 (some centres unmarked) [28F] |  |  | ++/+ (The ++/+ is used in the cases where an IC90 was determined to be >50 μg/mL) | > 1000 nM | 
CN(C)P1(=O)N(CC2CC2)[C@H](Cc2ccccc2)[C@H](O)[C@@H](O)[C@@H](Cc2ccccc2)N1CC1CC1 (some centres unmarked) [28G] |  |  | ++ (++=10 to 100 μg/mL) | > 1000 nM | 
COP1(=O)N(Cc2ccc(CO)cc2)[C@H](Cc2ccccc2)[C@H](O)[C@@H](O)[C@@H](Cc2ccccc2)N1Cc1ccc(CO)cc1 (some centres unmarked) [28H] |  |  | ++ (++=10 to 100 μg/mL) | 10 to 1000 nM | 
CN(C)P1(=O)N(Cc2ccc(CO)cc2)[C@H](Cc2ccccc2)[C@H](O)[C@@H](O)[C@@H](Cc2ccccc2)N1Cc1ccc(CO)cc1 (some centres unmarked) [28I] |  |  | ++ (++=10 to 100 μg/mL) | 10 to 1000 nM | 
O=P1(Oc2ccccc2)N(Cc2cccc(CO)c2)[C@H](Cc2ccccc2)[C@H](O)[C@@H](O)[C@@H](Cc2ccccc2)N1Cc1cccc(CO)c1 (some centres unmarked) [28J] |  |  | ++ (++=10 to 100 μg/mL) | 10 to 1000 nM | 
CNc1cccc(CN2[C@H](Cc3ccccc3)[C@H](O)[C@@H](O)[C@@H](Cc3ccccc3)N(Cc3cccc(NC)c3)P2(=O)Oc2ccccc2)c1 (some centres unmarked) [28L] |  |  | ++ (++=10 to 100 μg/mL) | 10 to 1000 nM | 
Cl.O=C(OCc1ccc(CN2C(=O)N(Cc3ccc(COC(=O)c4cccc(CN5CCOCC5)c4)cc3)[C@H](Cc3ccccc3)[C@H](O)[C@@H](O)[C@H]2Cc2ccccc2)cc1)c1cccc(CN2CCOCC2)c1 [29S] |  |  |  |  | IC90 (HIV-1 (RF) in MT-2 cells; Table 2s): +++ (+++=<10 μg/mL); Ki ([1]; Table 2s, read-out: Ki (HPLC)): > 1000 nM
Cl.O=C(OCc1ccc(CN2C(=O)N(Cc3ccc(COC(=O)c4ccc(CN5CCOCC5)cc4)cc3)[C@H](Cc3ccccc3)[C@H](O)[C@@H](O)[C@H]2Cc2ccccc2)cc1)c1ccc(CN2CCOCC2)cc1 [29T] |  |  |  |  | IC90 (HIV-1 (RF) in MT-2 cells; Table 2s): +++ (+++=<10 μg/mL); Ki ([1]; Table 2s, read-out: Ki (HPLC)): > 1000 nM
CCNCc1cccc(C(=O)OCc2ccc(CN3C(=O)N(Cc4ccc(COC(=O)c5cccc(CNCC)c5)cc4)[C@H](Cc4ccccc4)[C@H](O)[C@@H](O)[C@H]3Cc3ccccc3)cc2)c1.Cl [29U] |  |  |  |  | IC90 (HIV-1 (RF) in MT-2 cells; Table 2s): +++ (+++=<10 μg/mL); Ki ([1]; Table 2s, read-out: Ki (HPLC)): > 1000 nM

— patent USRE37781E1, “Substituted cyclic carbonyls and derivatives thereof useful as retroviral protease inhibitors” (DuPont Pharmaceuticals Company, priority 1991, dated 2002)
